Earlier results on two compounds are cited in US20230087473A1, “COMPOSITION OF SUSPOEMULSION FORMULATION OF ANTHELMINTIC DRUGS WITH ESSENTIAL OILS FOR NASO-PULMONARY ADMINISTRATION” (priority 2021, published 2023).

The conditions of data set [1]: in vivo.
For data set [2], the system named is SARS-COV-2. The settings on record: in-vitro study.
For data set [3], the system named is Musca Domenstica. The following applies: nasal irrigation with ivermectin solution, within 15 minutes.

Consider `O=C(Nc1ccc([N+](=O)[O-])cc1Cl)c1cc(Cl)ccc1O` [Niclosamide], for which the bioavailability entry in data set [1] is “very low bioavailability”.
Consider Ivermectin, for which, in data set [2], the “effect on replication of SARS-COV-2” value was “inhibitory role”. Further, the “larvae self-expulsed by the patient” value in data set [3] was “approximately 50 larvae”.
